Assay results taken from ChEMBL document CHEMBL4715913, “Discovery of benzo[f]pyrido[4,3-b][1,4]oxazepin-10-one derivatives as orally available bromodomain and extra-terminal domain (BET) inhibitors with efficacy in an in vivo psoriatic animal model” (Bioorg Med Chem, 2021).
Values belong to the molecule of their own block, whether it stands above or below them. Calls of active or inactive are those of the source. No cut-off for these calls is given here.

Experiments:
[1] = tested on: PBMC; assay: Inhibition of MCP-1 production in LPS-induced human PBMC preincubated for 1 hr followed by LPS-stimulation and measured after 20 hrs by magnetic beads technique based assay; assay type: functional, tissue-based; settings: time 21.0 hrs
[2] = tested on: PBMC; assay: Inhibition of IL-6 production in LPS-induced human PBMC preincubated for 1 hr followed by LPS-stimulation and measured after 20 hrs by magnetic beads technique based assay; assay type: functional, tissue-based; settings: time 21.0 hrs
[3] = molecular target: T1, Bromodomain-containing protein 4 (Homo sapiens, UniProt O60885); assay: Inhibition of BRD4-BD1 (unknown origin) by TR-FRET assay
[4] = Toxicity in imiquimod-induced Harlan Balb/c mouse model of psoriasis assessed as effect on body weight at 10 mg/kg, po BID for 7 days; assay type: organism-based; settings: in vivo, 168 h, time 7 day
[5] = tested on: Mus musculus; assay: Protection against imiquimod-induced Harlan Balb/c mouse model of psoriasis assessed as decrease in ear thickness at 10 mg/kg, po administered BID for 7 days measured on day 8 by dial gauge micrometer analysis; assay type: functional, organism-based; settings: time 7.0 day
[6] = molecular target: T2, Voltage-gated inwardly rectifying potassium channel KCNH2 (Homo sapiens, UniProt Q12809); assay: Inhibition of human ERG
T2 sequence (Q12809 whole entry): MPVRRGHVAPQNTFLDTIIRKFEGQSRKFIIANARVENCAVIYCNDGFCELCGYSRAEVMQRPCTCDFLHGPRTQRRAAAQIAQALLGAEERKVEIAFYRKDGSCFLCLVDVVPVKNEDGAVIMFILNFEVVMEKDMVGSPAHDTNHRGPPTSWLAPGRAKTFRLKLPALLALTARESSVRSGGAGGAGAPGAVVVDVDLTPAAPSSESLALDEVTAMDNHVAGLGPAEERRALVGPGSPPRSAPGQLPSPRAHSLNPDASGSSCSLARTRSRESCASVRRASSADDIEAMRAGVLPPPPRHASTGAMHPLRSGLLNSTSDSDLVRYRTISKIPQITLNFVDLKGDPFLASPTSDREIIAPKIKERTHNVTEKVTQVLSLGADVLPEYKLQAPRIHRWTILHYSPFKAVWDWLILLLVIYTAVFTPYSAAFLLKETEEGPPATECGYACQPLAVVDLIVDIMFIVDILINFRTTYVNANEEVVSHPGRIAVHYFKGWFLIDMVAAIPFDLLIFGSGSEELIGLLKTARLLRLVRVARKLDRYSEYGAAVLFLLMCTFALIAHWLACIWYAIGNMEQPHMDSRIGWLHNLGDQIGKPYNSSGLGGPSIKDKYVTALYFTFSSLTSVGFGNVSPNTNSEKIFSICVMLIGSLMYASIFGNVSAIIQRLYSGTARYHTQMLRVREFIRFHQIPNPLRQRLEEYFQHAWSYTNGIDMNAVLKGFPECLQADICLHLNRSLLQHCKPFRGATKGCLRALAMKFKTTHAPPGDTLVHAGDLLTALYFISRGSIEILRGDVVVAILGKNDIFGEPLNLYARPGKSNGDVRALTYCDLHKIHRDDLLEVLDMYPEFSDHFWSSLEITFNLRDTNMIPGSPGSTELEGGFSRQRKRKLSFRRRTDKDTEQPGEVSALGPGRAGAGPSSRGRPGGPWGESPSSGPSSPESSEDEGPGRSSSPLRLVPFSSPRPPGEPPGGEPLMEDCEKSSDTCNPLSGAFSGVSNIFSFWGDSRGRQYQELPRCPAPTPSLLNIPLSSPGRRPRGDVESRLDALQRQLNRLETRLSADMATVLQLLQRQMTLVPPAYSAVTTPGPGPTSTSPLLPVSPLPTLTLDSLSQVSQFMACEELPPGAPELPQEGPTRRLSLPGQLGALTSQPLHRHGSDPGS

[7] = molecular target: T1, Bromodomain-containing protein 4; assay: Inhibition of BRD4 in human PBMC assessed as reduction in LPS-induced TNFalpha secretion preincubated for 1 hr followed by LPS-stimulation and measured after 20 hrs by magnetic beads technique based assay
[8] = molecular target: T3, Mitogen-activated protein kinase 7 (Homo sapiens, UniProt Q13164); assay: Inhibition of recombinant human ERK5 using myelin basic protein as substrate by [gamm33P]ATP based HotSpot radiometric assay
T3 sequence (Q13164 whole entry): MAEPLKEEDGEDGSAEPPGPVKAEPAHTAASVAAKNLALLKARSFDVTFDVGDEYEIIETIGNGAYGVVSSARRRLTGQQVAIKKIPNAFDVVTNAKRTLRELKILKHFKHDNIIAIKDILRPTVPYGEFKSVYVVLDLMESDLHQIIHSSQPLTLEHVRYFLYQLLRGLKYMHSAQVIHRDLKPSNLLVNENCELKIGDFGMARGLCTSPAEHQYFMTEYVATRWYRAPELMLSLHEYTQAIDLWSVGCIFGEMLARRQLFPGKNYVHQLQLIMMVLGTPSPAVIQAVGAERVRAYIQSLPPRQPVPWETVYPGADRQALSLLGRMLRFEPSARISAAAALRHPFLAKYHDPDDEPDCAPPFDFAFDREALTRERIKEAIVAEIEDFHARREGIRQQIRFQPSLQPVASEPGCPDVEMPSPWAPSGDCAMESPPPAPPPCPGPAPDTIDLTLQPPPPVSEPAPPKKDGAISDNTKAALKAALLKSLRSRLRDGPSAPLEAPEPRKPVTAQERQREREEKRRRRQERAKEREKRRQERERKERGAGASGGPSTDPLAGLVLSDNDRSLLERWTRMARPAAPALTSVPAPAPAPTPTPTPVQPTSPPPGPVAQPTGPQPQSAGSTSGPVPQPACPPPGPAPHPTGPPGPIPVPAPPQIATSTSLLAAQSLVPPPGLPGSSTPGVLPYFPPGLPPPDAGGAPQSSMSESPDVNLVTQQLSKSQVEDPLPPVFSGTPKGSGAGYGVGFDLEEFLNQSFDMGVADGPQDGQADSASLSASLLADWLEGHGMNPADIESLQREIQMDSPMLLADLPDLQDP

[9] = Dissociation constant, pKa of compound; assay type: physicochemical
[10] = molecular target: T1, Bromodomain-containing protein 4; assay: Binding affinity to BRD4-BD1 (unknown origin)
[11] = molecular target: T3, Mitogen-activated protein kinase 7; assay: Inhibition of ERK5 (unknown origin)
[12] = Stability of compound in human liver microsomes assessed as parent compound remaining after 1 hr
[13] = molecular target: T2, Voltage-gated inwardly rectifying potassium channel KCNH2; assay: Inhibition of human ERG stably expressed in CHO cells at holding potential of -80 mV incubated for 12 mins
[14] = species on record: Homo sapiens; assay: Selectivity ratio of Kd for binding affinity to human partial length CREBBP (R1081 to G1197 residues) expressed in bacterial expression system to Kd for binding affinity to human partial length BRD4-BD1 (N44 to E168 residues) expressed in bacterial expression system
[15] = species on record: Homo sapiens; assay: Selectivity ratio of Kd for binding affinity to human partial length CREBBP (R1081 to G1197 residues) expressed in bacterial expression system to Kd for binding affinity to human partial length BRD2-BD2 (E348 to D455 residues) expressed in bacterial expression system
[16] = molecular target: Histone acetyltransferase p300 (Homo sapiens, UniProt Q09472); assay: Binding affinity to human partial length EP300 (A1040 to G1161 residues) expressed in bacterial expression system by BROMOscan method
[17] = species on record: Homo sapiens; assay: Selectivity ratio of Kd for binding affinity to human partial length EP300 (A1040 to G1161 residues) expressed in bacterial expression system to Kd for binding affinity to human partial length BRD2-BD2 (E348 to D455 residues) expressed in bacterial expression system
[18] = species on record: Homo sapiens; assay: Selectivity ratio of Kd for binding affinity to human partial length CREBBP (R1081 to G1197 residues) expressed in bacterial expression system to Kd for binding affinity to human partial length BRD3-BD2 (G306 to P416 residues) expressed in bacterial expression system
[19] = molecular target: T4, Bromodomain-containing protein 3 (Homo sapiens, UniProt Q15059); assay: Binding affinity to human partial length BRD3-BD2 (G306 to P416 residues) expressed in bacterial expression system by BROMOscan method
T4 sequence (Q15059 whole entry, the tested form may be a part): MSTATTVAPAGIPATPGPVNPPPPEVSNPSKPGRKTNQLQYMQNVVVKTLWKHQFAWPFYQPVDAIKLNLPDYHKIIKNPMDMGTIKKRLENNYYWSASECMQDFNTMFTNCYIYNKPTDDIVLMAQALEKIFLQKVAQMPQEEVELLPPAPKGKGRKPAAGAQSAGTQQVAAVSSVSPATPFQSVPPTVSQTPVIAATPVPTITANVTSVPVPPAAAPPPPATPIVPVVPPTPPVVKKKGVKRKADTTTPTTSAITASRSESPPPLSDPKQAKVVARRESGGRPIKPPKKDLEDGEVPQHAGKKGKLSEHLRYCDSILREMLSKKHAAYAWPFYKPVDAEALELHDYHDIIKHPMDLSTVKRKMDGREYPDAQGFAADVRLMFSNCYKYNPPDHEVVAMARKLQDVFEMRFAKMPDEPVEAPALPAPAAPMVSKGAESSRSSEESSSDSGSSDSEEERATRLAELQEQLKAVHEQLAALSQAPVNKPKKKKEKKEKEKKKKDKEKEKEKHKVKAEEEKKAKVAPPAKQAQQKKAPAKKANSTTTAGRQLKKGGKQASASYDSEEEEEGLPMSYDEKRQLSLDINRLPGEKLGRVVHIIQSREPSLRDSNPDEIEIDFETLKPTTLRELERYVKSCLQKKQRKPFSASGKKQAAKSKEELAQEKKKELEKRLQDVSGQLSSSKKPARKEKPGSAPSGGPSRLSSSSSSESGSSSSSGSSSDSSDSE

[20] = molecular target: CREB-binding protein (Homo sapiens, UniProt Q92793); assay: Binding affinity to human partial length CREBBP (R1081 to G1197 residues) expressed in bacterial expression system by BROMOscan method
[21] = species on record: Homo sapiens; assay: Selectivity ratio of Kd for binding affinity to human partial length EP300 (A1040 to G1161 residues) expressed in bacterial expression system to Kd for binding affinity to human partial length BRD3-BD2 (G306 to P416 residues) expressed in bacterial expression system
[22] = molecular target: T4, Bromodomain-containing protein 3; assay: Binding affinity to human partial length BRD3-BD1 (P24 to E144 residues) expressed in bacterial expression system by BROMOscan method
[23] = species on record: Homo sapiens; assay: Selectivity ratio of Kd for binding affinity to human partial length EP300 (A1040 to G1161 residues) expressed in bacterial expression system to Kd for binding affinity to human partial length BRD3-BD1 (P24 to E144 residues) expressed in bacterial expression system
[24] = species on record: Homo sapiens; assay: Selectivity ratio of Kd for binding affinity to human partial length EP300 (A1040 to G1161 residues) expressed in bacterial expression system to Kd for binding affinity to human partial length BRD4-BD2 (K333 to E460 residues) expressed in bacterial expression system
[25] = molecular target: T1, Bromodomain-containing protein 4; assay: Binding affinity to human partial length BRD4-BD2 (K333 to E460 residues) expressed in bacterial expression system by BROMOscan method
[26] = species on record: Homo sapiens; assay: Selectivity ratio of Kd for binding affinity to human partial length CREBBP (R1081 to G1197 residues) expressed in bacterial expression system to Kd for binding affinity to human partial length BRD3-BD1 (P24 to E144 residues) expressed in bacterial expression system
[27] = species on record: Homo sapiens; assay: Selectivity ratio of Kd for binding affinity to human partial length EP300 (A1040 to G1161 residues) expressed in bacterial expression system to Kd for binding affinity to human partial length BRDT-BD2 (K250 to E382 residues) expressed in bacterial expression system
[28] = species on record: Homo sapiens; assay: Selectivity ratio of Kd for binding affinity to human partial length EP300 (A1040 to G1161 residues) expressed in bacterial expression system to Kd for binding affinity to human partial length BRD4-BD1 (N44 to E168 residues) expressed in bacterial expression system
[29] = tested on: Mus musculus; assay: Protection against imiquimod-induced po dosed Harlan Balb/c mouse model of psoriasis assessed as decrease in ear thickness administered BID for 7 days measured on day 8 by dial gauge micrometer analysis; assay type: functional, organism-based; settings: dose 3-30 mg/kg, time 7.0 day
[30] = species on record: Homo sapiens; assay: Selectivity ratio of Kd for binding affinity to human partial length CREBBP (R1081 to G1197 residues) expressed in bacterial expression system to Kd for binding affinity to human partial length BRDT-BD1 (N21 to E137 residues) expressed in bacterial expression system
[31] = molecular target: T5, Bromodomain-containing protein 2 (Homo sapiens, UniProt P25440); assay: Binding affinity to human partial length BRD2-BD2 (E348 to D455 residues) expressed in bacterial expression system by BROMOscan method
T5 sequence (P25440 whole entry, the tested form may be a part): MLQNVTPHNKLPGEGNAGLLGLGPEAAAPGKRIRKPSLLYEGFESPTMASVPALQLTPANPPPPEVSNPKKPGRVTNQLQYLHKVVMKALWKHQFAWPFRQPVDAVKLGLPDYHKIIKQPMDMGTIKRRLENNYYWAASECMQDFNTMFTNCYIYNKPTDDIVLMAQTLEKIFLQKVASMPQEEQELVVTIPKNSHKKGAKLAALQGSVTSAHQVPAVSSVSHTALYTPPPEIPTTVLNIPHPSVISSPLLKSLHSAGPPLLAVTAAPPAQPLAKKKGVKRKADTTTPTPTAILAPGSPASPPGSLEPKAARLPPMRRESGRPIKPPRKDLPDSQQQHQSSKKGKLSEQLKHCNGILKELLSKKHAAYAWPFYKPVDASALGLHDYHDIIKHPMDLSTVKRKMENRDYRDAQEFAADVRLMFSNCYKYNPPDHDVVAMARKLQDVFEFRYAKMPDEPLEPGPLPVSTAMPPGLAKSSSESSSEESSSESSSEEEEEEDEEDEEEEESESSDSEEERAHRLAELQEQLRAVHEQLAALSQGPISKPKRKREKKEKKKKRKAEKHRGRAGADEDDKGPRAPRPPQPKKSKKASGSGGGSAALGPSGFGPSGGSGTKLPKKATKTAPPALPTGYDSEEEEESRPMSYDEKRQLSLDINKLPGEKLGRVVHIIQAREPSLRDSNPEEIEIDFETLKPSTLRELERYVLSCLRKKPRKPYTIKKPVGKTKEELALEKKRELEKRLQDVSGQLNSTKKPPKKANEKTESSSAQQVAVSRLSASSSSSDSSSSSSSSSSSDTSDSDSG

[32] = species on record: Homo sapiens; assay: Selectivity ratio of Kd for binding affinity to human partial length CREBBP (R1081 to G1197 residues) expressed in bacterial expression system to Kd for binding affinity to human partial length BRD2-BD1 (K71 to N194 residues) expressed in bacterial expression system
[33] = species on record: Homo sapiens; assay: Selectivity ratio of Kd for binding affinity to human partial length CREBBP (R1081 to G1197 residues) expressed in bacterial expression system to Kd for binding affinity to human partial length BRDT-BD2 (K250 to E382 residues) expressed in bacterial expression system
[34] = molecular target: T6, Bromodomain testis-specific protein (Homo sapiens, UniProt Q58F21); assay: Binding affinity to human partial length BRDT-BD2 (K250 to E382 residues) expressed in bacterial expression system by BROMOscan method
[35] = Toxicity in imiquimod-induced Harlan Balb/c mouse model of psoriasis assessed as effect on body weight at 3 to 30 mg/kg, po BID for 7 days; assay type: organism-based; settings: in vivo, 168 h, dose 3-30 mg/kg, time 7 day
[36] = molecular target: T1, Bromodomain-containing protein 4; assay: Binding affinity to human partial length BRD4-BD1 (N44 to E168 residues) expressed in bacterial expression system by BROMOscan method
[37] = species on record: Homo sapiens; assay: Selectivity ratio of Kd for binding affinity to human partial length EP300 (A1040 to G1161 residues) expressed in bacterial expression system to Kd for binding affinity to human partial length BRD2-BD1 (K71 to N194 residues) expressed in bacterial expression system
[38] = molecular target: T5, Bromodomain-containing protein 2; assay: Binding affinity to human partial length BRD2-BD1 (K71 to N194 residues) expressed in bacterial expression system by BROMOscan method
[39] = molecular target: T6, Bromodomain testis-specific protein; assay: Binding affinity to human partial length BRDT-BD1 (N21 to E137 residues) expressed in bacterial expression system by BROMOscan method
[40] = species on record: Homo sapiens; assay: Selectivity ratio of Kd for binding affinity to human partial length CREBBP (R1081 to G1197 residues) expressed in bacterial expression system to Kd for binding affinity to human partial length BRD4-BD2 (K333 to E460 residues) expressed in bacterial expression system
[41] = species on record: Homo sapiens; assay: Selectivity ratio of Kd for binding affinity to human partial length EP300 (A1040 to G1161 residues) expressed in bacterial expression system to Kd for binding affinity to human partial length BRDT-BD1 (N21 to E137 residues) expressed in bacterial expression system

- EC50 [7]: 1170 nM
- remaining at 1 h [12]: 103%
- IC50 [8]: 1050 nM
- IC50 [3]: 12800 nM
SMILES: CN1C(=O)c2cccc(Cl)c2Oc2cc(N[C@H]3CC[C@H](O)CC3)ncc21
- inhibition [1]: Active
- inhibition [2]: Active
- IC50 [13]: > 10000 nM

- Selectivity ratio [14]: 20
- Selectivity ratio [15]: 20
- Kd [16]: 1200 nM
- Selectivity ratio [17]: 20
- EC50 [7]: 440 nM
- Selectivity ratio [18]: 20
- Kd [19]: 140 nM
- Kd [20]: 1900 nM
- Selectivity ratio [21]: 20
- Kd [22]: 52 nM
- Selectivity ratio [23]: 20
- Selectivity ratio [24]: 20
- remaining at 1 h [12]: 100%
- Kd [25]: 72 nM
- IC50 [8]: 131 nM
- Selectivity ratio [26]: 20
- Selectivity ratio [27]: 20
- Selectivity ratio [28]: 20
- Selectivity ratio [30]: 20
- Kd [31]: 160 nM
- Selectivity ratio [32]: 20
- Selectivity ratio [33]: 20
- Kd [34]: 220 nM
- Kd [36]: 78 nM
- Selectivity ratio [37]: 20
- Kd [38]: 71 nM
- IC50 [3]: 1270 nM
- Kd [39]: 170 nM
- Selectivity ratio [40]: 20
- Selectivity ratio [41]: 20
SMILES: CN1C(=O)c2c(F)cccc2Oc2cc(N[C@H]3CC[C@H](O)CC3)ncc21
- inhibition [1]: Active
- inhibition [2]: Active
- IC50 [13]: > 10000 nM
- Activity [5]: Active
- Activity [29]: Dose-dependent effect
- Activity [35]: Non-Toxic

- EC50 [7]: 1380 nM
- remaining at 1 h [12]: 85%
- IC50 [8]: 1100 nM
- IC50 [3]: 2820 nM
SMILES: COc1cccc2c1Oc1cc(N[C@H]3CC[C@H](O)CC3)ncc1N(C)C2=O
- inhibition [1]: Active
- inhibition [2]: Active
- IC50 [13]: > 10000 nM

Second part, the molecule before the results:

SMILES: CN1C(=O)c2ccccc2Sc2cc(N[C@H]3CC[C@H](O)CC3)ncc21
- inhibition [1]: Active
- inhibition [2]: Active
- IC50 [3]: > 30000 nM

SMILES: CCOc1cc([C@@H](CS(C)(=O)=O)N2C(=O)c3cccc(NC(C)=O)c3C2=O)ccc1OC
- Activity [4]: Non-Toxic
- Activity [5]: Active

SMILES: CN1C(=O)c2ccccc2N(C)c2cc(N[C@H]3CC[C@H](O)CC3)ncc21
- IC50 [6]: > 10000 nM
- inhibition [1]: Active
- EC50 [7]: 2110 nM
- inhibition [2]: Active
- IC50 [8]: 89 nM
- pKa [9]: 5.06
- Kd [10]: 130 nM
- IC50 [3]: 5990 nM
- IC50 [11]: 89 nM

SMILES: CN1C(=O)c2ccccc2S(=O)(=O)c2cc(N[C@H]3CC[C@H](O)CC3)ncc21
- inhibition [1]: Active
- inhibition [2]: Active
- IC50 [3]: > 30000 nM
